Results as given in paper PMC9057582, “HIF inhibitor 32-134D eradicates murine hepatocellular carcinoma in combination with anti-PD1 therapy” (The Journal of Clinical Investigation, 2022).

Key:
[1] = system: HIF transcriptional activity; test: HIF-dependent luciferase reporter assay (FLuc/RLuc ratio) in Hep3B-c1 cells; format: cell-based; conditions: Homo sapiens, 1% O2, 24 hours, read-out: IC50, inhibition of HIF-dependent reporter gene expression
Excerpt: The NCI CellMiner database contains expression data for over 25,000 mRNAs in 60 human cancer cell lines that have been exposed to more than 20,000 chemical compounds ([49]). We searched CellMiner for a compound that induced changes in gene expression that were highly correlated with those induced by acriflavine, but which was structurally unrelated to acriflavine. Compounds that satisfied the above criteria were identified and subsequently analyzed in Hep3B-c1 cells ([50]), which are stably transfected with HIF-dependent reporter plasmid p2.1, in which firefly luciferase (FLuc) coding sequences are located downstream from a hypoxia-response element (HRE) and a basal SV40 promoter; and control reporter pSVR, in which Renilla luciferase (RLuc) coding sequences are downstream of the basal SV40 promoter only (Figure 1A). The FLuc/RLuc ratio in cells exposed to 1% O2 for 24 hours is a specific measure of HIF-dependent gene expression.
Figure 1 Identification of HIF inhibitors. (A) Hep3B-c1 cells were stably transfected with firefly luciferase (FLuc) reporter p2.1, which contains a hypoxia-response element (HRE), and Renilla luciferase (RLuc) reporter pSVR. (B) Hep3B-c1 cells were incubated with vehicle (Veh; 0.1% DMSO; blue bars) or 10 μM 32-134D (red bars) at 20% O2 (n = 6) or 1% O2 (n = 12) for 24 hours. Cell lysates were assayed for Fluc/Rluc activity (mean ± SEM); *P < 0.05 versus vehicle (χ^2 test). (C) Chemical structures and IC50 values for HIF inhibitors. (D and E) Hep3B cells were exposed to 20% O2 with vehicle, or 1% O2 with vehicle (blue bar), 32-134D (red bars), 33-063 (green bars), or PT2385 (brown bars) for 24 hours and CA9 (D) and EPO (E) mRNAs were quantified by RT-qPCR. […] (F) Hep3B cells were exposed to 20% or 1% O2 in the presence of vehicle or 1% O2 in the presence of 5 μM 32-134D (n = 3 each) for 24 hours. […]
Hep3B-c1 cells ([50]) were seeded on 24-well plates. […] FLuc/RLuc ratios were determined using the Dual Luciferase Reporter Assay System (Supplemental Table 6) and the VICTOR Nivo plate reader (PerkinElmer).

[2] = system: Hepa1-6 tumor immune microenvironment; test: Flow cytometry of immune cell populations in Hepa1-6 tumors; format: in vivo, C57L mice; conditions: 40 mg/kg daily ip, 8 days
Protocol: To analyze the mechanism by which 32-134D increased the response to anti-PD1 therapy, Hepa1-6 tumor–bearing mice were treated with 32-134D or vehicle, and immune cell populations in well-established 200-mm^3 tumors were analyzed by flow cytometry (Supplemental Figure 8). […] The pivotal role of CD8^+ T cells and NK cells in antitumor immunity is underscored by the fact that expression of CD8A and CD8B mRNA as well as KLRK1 and KLRB1 mRNA (encoding the human homologs of CD314 and NK1.1, respectively) in HCC is associated with patient survival (P < 0.05; Supplemental Table 2).
Figure 5 Effect of 32-134D on the tumor immune microenvironment. (A–H) C57L mice were injected with Hepa1-6 HCC cells subcutaneously and when tumors reached a volume of 200 mm^3, the mice were treated with vehicle or 32-134D (40 mg/kg) by daily intraperitoneal injection for 8 days. Single-cell suspensions prepared from each tumor were analyzed by flow cytometry using fluorescent antibodies against the indicated cell surface proteins. The percentage of cells positive for the indicated markers is shown (mean ± SEM, n = 6). *P < 0.05 (Mann-Whitney test). M-MDSCs and G-MDSCs, monocytic and granulocytic myeloid-derived suppressor cells; TAMs, tumor-associated macrophages.
Hepa1-6 tumors were digested with collagenase (1 mg/mL) at 37°C for 30 minutes and the resulting single-cell suspension was passed through a 70-μm cell strainer and washed twice with cold PBS. Cells were resuspended in FC buffer for subsequent flow cytometry analysis. Cells were stained with at least 2 antibodies (see Supplemental Table 6) to capture different immune cell populations. G-MDSCs: Alexa Fluor 405–conjugated anti-CD11b and FITC-conjugated anti-Ly6G; M-MDSCs: Alexa Fluor 405–conjugated anti-CD11b and FITC-conjugated anti-Ly6C; TAMs: Alexa Fluor 405–conjugated anti-CD11b and allophycocyanin-conjugated (APC-conjugated) anti-F4/80; dendritic cells: Alexa Fluor 405–conjugated anti-CD11b, FITC-conjugated anti-CD11c, and APC-conjugated anti-F4/80; cytotoxic NK cells: FITC-conjugated anti-CD3, APC-conjugated anti-NK1.1, and Alexa Fluor 405–conjugated anti-CD314; effector T cells: phycoerythrin-conjugated (PE-conjugated) anti-CD8A and Alexa Fluor 405–conjugated anti–IFN-γ; activated T cells: PE-conjugated anti-CD8A, FITC-conjugated anti-CD69, and APC-conjugated anti-CD44; regulatory T cells: APC-conjugated anti-CD4, FITC-conjugated anti-CD25, and PE-conjugated anti-FOXP3. Live cells were gated using side-scatter and forward-scatter plots, and data were acquired using FACSDiva software (Becton Dickinson). Cell populations were gated using unstained control and single stained cell samples. Data analysis was performed using FlowJo software.
Supplemental Figure 8. Effect of 32-134D on Hepa1-6 tumor immune cell microenvironment. […]

- IC50 [1]: 2.5 µM
SMILES: Brc1ccc2c(-c3csc(-c4c[nH]c5c(Br)cccc45)n3)c[nH]c2c1 [Compound 32-134D]
- increase in the ratio of effector T cells to TAMs [2]: 3 fold
- percentage of regulatory T cells, G-MDSCs, and dendritic cells in tumors [2]: not significantly affected
- percentage of CD8+IFN-γ+ effector T cells, CD8+CD44+CD69+ activated T cells, and NK1.1+CD3–CD314+ activated NK cells in tumors ([2]; P < 0.05): significantly increased
- percentage of intratumoral CD11b+F4/80+ TAMs and CD11b+Ly6C+ M-MDSCs ([2]; P < 0.05): decreased percentage
